Laboratory results published in the supplement of paper PMC10307832.

Legend:
Test in all cases: relative viability (nuclei count vs DMSO), 5 days (fraction); higher = more cells survive
Axitinib + AZD7762 = compound: CNC(=O)c1ccccc1Sc1ccc2c(/C=C/c3ccccn3)n[nH]c2c1 [Axitinib] + NC(=O)Nc1cc(-c2cccc(F)c2)sc1C(=O)N[C@H]1CCCNC1 [AZD7762] (partner 0.2 µM)
How it was run: (§1)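 Each reported value is a median over duplicate plates. It expresses relative viability: treated-well nuclei count divided by vehicle-well nuclei count. Lung cancer cell lines in 1536-well plates were dosed by pin tool a day after seeding, alone with one drug or with a fixed anchor-drug dose plus five library-drug doses (not always all listed) in √10 steps, and nuclei were counted after 5 days.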

Bemcentinib + Dasatinib = compound: Nc1nc(Nc2ccc3c(c2)CC[C@@H](N2CCCC2)CC3)nn1-c1cc2c(nn1)-c1ccccc1CCC2 [Bemcentinib] + Cc1nc(Nc2ncc(C(=O)Nc3c(C)cccc3Cl)s2)cc(N2CCN(CCO)CC2)n1 [Dasatinib] (partner 0.075 µM)
How it was run: as §1

Bemcentinib + Foretinib = compound: Nc1nc(Nc2ccc3c(c2)CC[C@@H](N2CCCC2)CC3)nn1-c1cc2c(nn1)-c1ccccc1CCC2 [Bemcentinib] + COc1cc2c(Oc3ccc(NC(=O)C4(C(=O)Nc5ccc(F)cc5)CC4)cc3F)ccnc2cc1OCCCN1CCOCC1 [Foretinib] (partner 0.25 µM)
How it was run: as §1

[1] = compound: CC1=CC=C(C=C1)C(=O)CN2C3=C(CCCC3)SC2=N [Pifithrin_alpha] + Nc1nc2[nH]cc(CCc3ccc(C(=O)N[C@@H](CCC(=O)O)C(=O)O)cc3)c2c(=O)[nH]1 [Pemetrexed] (partner 0.2 µM)
How it was run: as §1

| Cell Line | relative viability (Axitinib + AZD7762; first compound 0.01581 µM) | relative viability (Axitinib + AZD7762; first compound 0.05 µM) | relative viability (Axitinib + AZD7762; first compound 0.1581 µM) | relative viability (Axitinib + AZD7762; first compound 0.5 µM) | relative viability (Bemcentinib + Dasatinib; first compound 0.04 µM) | relative viability (Bemcentinib + Dasatinib; first compound 0.1265 µM) | relative viability (Bemcentinib + Dasatinib; first compound 0.4 µM) | relative viability (Bemcentinib + Dasatinib; first compound 1.265 µM) | relative viability (Bemcentinib + Dasatinib; first compound 4 µM) | relative viability (Bemcentinib + Foretinib; first compound 0.04 µM) | relative viability (Bemcentinib + Foretinib; first compound 0.1265 µM) | relative viability (Bemcentinib + Foretinib; first compound 0.4 µM) | relative viability (Bemcentinib + Foretinib; first compound 1.265 µM) | relative viability (Bemcentinib + Foretinib; first compound 4 µM) | relative viability (Axitinib + AZD7762; first compound 0.005 µM) | relative viability ([1]; first compound 1 µM) | relative viability ([1]; first compound 3.162 µM) | relative viability ([1]; first compound 10 µM) | relative viability ([1]; first compound 31.62 µM) | relative viability ([1]; first compound 100 µM) |
| --- | --- | --- | --- | --- | --- | --- | --- | --- | --- | --- | --- | --- | --- | --- | --- | --- | --- | --- | --- | --- |
| ABC-1 | 0.725 | 0.896 | 0.822 | 0.461 | 0.423 | 0.512 | 0.59 | 0.553 | 0.667 | 1.05 | 1.18 | 1 | 0.899 | 0.897 | – | – | – | – | – | – |
| NCI-H727 | 0.554 | 0.629 | 0.738 | 0.584 | 0.394 | 0.4 | 0.319 | 0.337 | 0.441 | 0.881 | 1.09 | 0.935 | 0.88 | 1.03 | 0.488 | – | – | – | – | – |
| NCI-H2009 | – | – | – | – | 0.24 | 0.303 | 0.276 | 0.272 | 0.247 | 1.29 | 1.26 | 1.25 | 1.24 | 1.24 | – | 0.985 | 1.01 | 0.949 | 0.702 | 0.944 |
| SW 1573 | – | – | – | – | 0.411 | 0.52 | 0.611 | 0.477 | 0.636 | 0.821 | 0.954 | 0.803 | 0.797 | 0.832 | – | – | 1.03 | 0.964 | 0.593 | 0.808 |
| NCI-H661 | – | – | – | – | 0.77 | 0.877 | 0.924 | 0.832 | 0.913 | 0.969 | 1.04 | 1.01 | 0.981 | 0.986 | – | 0.937 | 0.922 | 0.962 | 0.834 | 0.888 |
| UMC-11 | – | – | – | – | 0.462 | 0.563 | 0.559 | 0.466 | 0.476 | 0.939 | 1.18 | 1.15 | 1.12 | 1.08 | – | 0.866 | 0.869 | 0.824 | 0.723 | 1.08 |
| NCI-H520 | – | – | – | – | 0.197 | 0.194 | 0.257 | 0.206 | 0.23 | 0.957 | 0.748 | 0.911 | 0.685 | 0.791 | – | 0.721 | 0.741 | 0.727 | 0.461 | 0.699 |
| COR-L23 | – | – | – | – | 0.414 | 0.531 | 0.55 | 0.359 | 0.482 | 0.949 | 1.23 | 0.969 | 1.08 | 0.999 | – | 0.19 | 0.201 | 0.196 | – | 0.181 |
| NCI-H2023 | – | – | – | – | 0.56 | 0.727 | 0.606 | 0.677 | 0.64 | 0.824 | 1.09 | 0.936 | 0.731 | 0.686 | – | 0.28 | 0.254 | 0.215 | 0.157 | 0.153 |
| NCI-H1650 | – | – | – | – | 0.344 | 0.382 | 0.347 | 0.346 | 0.321 | 1.12 | 1.1 | 0.969 | 0.885 | 1.32 | – | 0.358 | 0.366 | 0.341 | 0.331 | 0.392 |
| NCI-H1648 | 0.57 | 0.666 | 0.733 | 0.682 | – | – | – | – | – | – | – | – | – | – | 0.725 | 0.805 | 0.49 | 0.924 | 0.655 | 0.671 |
| NCI-H1792 | 0.629 | 0.777 | 0.755 | 1.03 | 0.859 | 0.956 | 1.17 | 0.91 | 0.873 | – | – | – | – | – | 0.72 | 1.12 | 0.649 | 0.675 | – | 0.585 |
| NCI-H1563 | – | – | – | – | 0.403 | 0.429 | 0.448 | 0.413 | 0.444 | 0.998 | 0.999 | 0.975 | 0.897 | 0.949 | – | 0.54 | 0.813 | 0.817 | 0.769 | 0.749 |
| A549 | – | – | – | – | – | – | – | – | – | 0.95 | 1.03 | 0.977 | 1.08 | 1.11 | – | – | – | – | – | – |
| NCI-H1623 | – | – | – | – | 0.51 | 0.504 | 0.528 | 0.639 | 0.473 | 0.857 | 0.742 | 0.853 | 1.01 | 0.934 | – | – | – | – | – | – |
| NCI-H1299 | – | – | – | – | – | – | – | – | – | 1.09 | 1.13 | 1.13 | 1.13 | 1.09 | – | – | – | – | – | – |
| SK-LU-1 | – | – | – | – | 0.181 | 0.201 | 0.197 | 0.191 | 0.155 | 0.854 | 0.988 | 0.89 | 0.896 | 0.826 | – | 1.03 | 1.03 | 1.07 | 0.752 | 1.14 |
| HCC-44 | 1.04 | 1.01 | 0.992 | 1.03 | – | – | – | – | – | – | – | – | – | – | 1.07 | 0.56 | 0.584 | 0.667 | 0.519 | 0.574 |
| NCI-H522 | 0.924 | 0.787 | 0.9 | 0.794 | 0.768 | 0.975 | 0.886 | 0.844 | 0.829 | – | – | – | – | – | 0.754 | 0.805 | 0.978 | 1.02 | 0.796 | 1.05 |
| EBC-1 | – | – | – | – | – | – | – | – | – | 0.0932 | 0.0983 | 0.108 | 0.0894 | 0.103 | – | – | – | – | – | – |
| Calu-6 | – | – | – | – | – | – | – | – | – | 0.93 | 0.938 | 0.947 | 0.917 | 0.905 | – | – | – | – | – | – |
| NCI-H1703 | 0.11 | 0.118 | 0.121 | 0.125 | – | – | – | – | – | – | 0.336 | 0.377 | 0.312 | 0.334 | 0.135 | – | – | – | – | – |
